This is an account of results in ChEMBL document CHEMBL1134479 (J Med Chem, 2001).

One experiment has as its target Estrogen receptor beta (Homo sapiens, UniProt Q92731).
In experiment [1] the target is T1, Estrogen receptor (Homo sapiens, UniProt P03372).
T1 sequence (P03372 whole entry): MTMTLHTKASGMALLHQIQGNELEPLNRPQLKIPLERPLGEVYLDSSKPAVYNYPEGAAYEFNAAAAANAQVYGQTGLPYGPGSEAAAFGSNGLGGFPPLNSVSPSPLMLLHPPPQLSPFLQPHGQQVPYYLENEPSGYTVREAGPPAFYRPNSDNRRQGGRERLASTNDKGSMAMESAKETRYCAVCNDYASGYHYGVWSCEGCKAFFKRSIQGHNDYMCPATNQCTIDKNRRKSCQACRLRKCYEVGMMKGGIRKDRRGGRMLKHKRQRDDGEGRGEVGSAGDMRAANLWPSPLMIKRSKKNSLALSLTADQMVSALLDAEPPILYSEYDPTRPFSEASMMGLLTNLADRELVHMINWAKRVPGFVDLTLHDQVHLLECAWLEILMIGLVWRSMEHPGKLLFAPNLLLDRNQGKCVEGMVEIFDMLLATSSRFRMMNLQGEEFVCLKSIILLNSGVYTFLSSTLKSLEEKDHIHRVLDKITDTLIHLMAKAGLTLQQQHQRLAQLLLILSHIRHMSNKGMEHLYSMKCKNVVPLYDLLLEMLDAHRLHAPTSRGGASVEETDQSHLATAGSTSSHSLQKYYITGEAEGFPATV
Nature of the experiment: In vitro inhibition of [3H]17-beta-estradiol binding to human estrogen receptor alpha.

Experiment [2] concerns the target T1, Estrogen receptor. Nature of the experiment: In vitro antagonist effect on estrogen receptor alpha transcriptional activation in MCF-7 cells against 10 pM 17-beta-estradiol.

Chain of Estrogen receptor beta (Q92731 whole entry): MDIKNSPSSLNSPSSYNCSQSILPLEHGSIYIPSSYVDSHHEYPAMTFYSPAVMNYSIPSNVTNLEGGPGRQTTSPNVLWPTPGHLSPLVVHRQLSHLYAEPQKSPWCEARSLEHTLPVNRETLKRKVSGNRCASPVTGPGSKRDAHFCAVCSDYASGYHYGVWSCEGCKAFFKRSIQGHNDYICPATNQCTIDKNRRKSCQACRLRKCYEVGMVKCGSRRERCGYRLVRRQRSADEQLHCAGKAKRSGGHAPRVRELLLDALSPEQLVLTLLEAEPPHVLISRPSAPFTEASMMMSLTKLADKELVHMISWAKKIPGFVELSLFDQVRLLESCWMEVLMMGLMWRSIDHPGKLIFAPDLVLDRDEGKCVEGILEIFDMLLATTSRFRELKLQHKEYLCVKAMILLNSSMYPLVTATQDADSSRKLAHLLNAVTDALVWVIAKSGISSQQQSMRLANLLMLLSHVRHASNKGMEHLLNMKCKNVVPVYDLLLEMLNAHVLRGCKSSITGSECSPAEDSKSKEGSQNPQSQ
Description for Estrogen receptor beta: In vitro inhibitory concentration against [3H]17-beta-estradiol binding to human estrogen receptor 2

By IC50 is commonly meant the concentration that gives 50% inhibition. On to `Cc1c(-c2ccc(O)cc2)n(Cc2ccc(OCCN3CCCCC3)cc2)c2ccc(O)cc12` [PIPENDOXIFENE], for which the IC50 at Estrogen receptor beta was 0.04 µM.

In the case of `Cc1c(-c2ccc(O)cc2)n(CCCCCCN2CCCC2)c2ccc(O)cc12`, the IC50 is 0.025 µM at Estrogen receptor [1], 0.242 µM against Estrogen receptor beta and 0.069 µM against Estrogen receptor [2].
